The text below walks through data of publication PMC12454639, “Direct disassembly of α-syn preformed fibrils into α-syn monomers by an all-D-peptide” (NPJ Parkinson's Disease, 2025).

“Also recorded” adds a separate entry of the source. Square brackets hold non-standard residues; d marks the D form. Peptide text beside a SMILES is read from it.

In one assay the test system is small α-syn PFF seeds. Put plainly: Time-dependent DLS of small α-syn PFF seeds disassembly. It is filed as biochemical. Also noted: rate constant of PFF disassembly: unit not given here. The conditions noted are these: 200 nM PFF + 500 nM SVD-1a. The protocol:
Fig. 4 SVD-1a disassembles small α-syn PFF seeds into α-syn monomers. Small α-syn PFF seeds were prepared as described previously. […] A and B Time-dependent DLS measurements with 200 nM small α-syn PFF seeds in the absence (A) and presence (B) of 500 nM SVD-1a. 1 ml sample was continuously measured in a sealed quartz cuvette at 37 °C under quiescent conditions every 60 s for 72 h in a SpectroSize 300 instrument (XtalConcepts, GE). Data are shown as a radius plot where the signal amplitude of each particle size is represented by the data point diameter. C One-phase exponential decay fit of “200 nM PFF + 500 nM SVD-1a” shown in (B). Fit was performed for particles in the range of 1–100 nm with an amplitude > 0.2. Outliers were excluded from fitting using a Q value of 1%. […] Fitting was performed using the “One phase exponential decay” fitting function from GraphPad Prism 10 (GraphPad Software Inc., USA). […] D For AFM analysis, small α-syn PFF seeds pretreated with or without 400 and 1600 nM SVD-1a were incubated and dried on a freshly cleaved mica surface, followed by washing with ddH2O and drying using a gentle stream of N2. Analysis was performed using the NanoWizard 3 system (J-1100, JPK BioAFM, USA), recording multiple surface sections. The sections shown are representative of the observed species and particle density identified on all surface sections. E Exemplary Western blot of small α-syn PFF samples incubated with SVD-1a. 200 nM small α-syn PFFs (monomer equivalent) were incubated with increasing concentrations of SVD-1a for 72 h at 37 °C. PFF and monomer samples that were incubated without SVD-1a served as controls. α-Syn was detected with the antibody Syn211. A prominent α-syn monomer band was present at the expected molecular weight. Below the monomer bands, no further bands were visible. In the upper part of the blot, above the marker range, PFFs were detected, using a longer exposure time due to a weaker signal (see Supplementary Fig. 11 for the whole blot image with different exposure times). F Size-based fractionation by centrifugal concentration followed by ELISA quantification. 200 nM small α-syn PFF (monomer equivalent) were incubated with or without SVD-1a together with a 200 nM monomer control for 72 h at 37 °C. After incubation, the samples were fractioned using a 100 kDa MWCO centrifugal concentrator (Merck, Microcon DNA Fast Flow 100 MWCO). α-Syn content of flow through (red) and retentate (blue) was quantified using an α-syn specific ELISA (BioLegend, Human α-Synuclein (Colorimetric), 448607). Shown are the fractions of the retentate and flow through as a percentage of the total concentration identified for each sample. A linear regression line (blue or red dotted lines) was included for the SVD-1a-treated samples (left) to underline the concentration dependency of the SVD-1a treatment effect. The fractions identified for the α-syn monomer control sample are shown as a bar graph (right). […] Data are shown as mean values with ±SD (n = 3).
small α-syn PFF seeds were prepared as described previously with some modifications. […] The monomer equivalent concentration was determined by measuring the α-syn concentration in the supernatant after the first centrifugation and subtracting it from the start concentration for fibrilization. […]

In another assay the test system is α-syn monomer. Briefly: SDS–PAGE of fractionated de novo aggregation samples. It is filed as biochemical. The conditions noted are these: 10 µM α-syn, 5, 10, 20 µM SVD-1a, 7 days, silver staining. The protocol:
For small PFF pre incubation with or without SVD-1a (Fig. 4) samples were pre-incubated at 37 °C and 600 rpm for 72 h in PBS pH 7.4 with 0.05% sodium azide using protein low binding reaction tubes in a thermos shaker (Eppendorf GmbH, GE). For de novo aggregation analysis, each replicate was pre-incubated in PBS pH 7.4 with 0.05% sodium azide in a 96-well non-binding half-area plate (Corning, USA) in a FLUOStar platereader (BMG labtech, GE) with 300 rpm continuous orbital shaking in between reads, adding one borosilicate bead per well (d = 3 mm, Hilgenberg, GE, n = 7). 10 µM α-syn monomer was incubated with or without 5, 10 or 20 µM SVD-1a for 7 days. […] The α-syn concentration of the samples was then quantified using an α-syn-specific kit (Human α-Synuclein (Colorimetric), 448607, BioLegend, USA). […]
Supplementary Fig. 20: SDS-PAGE analysis of de novo aggregation samples at incubation endpoint in presence or absence of SVD-1a. 10 µM α-syn monomer was incubated with or without 5, 10 or 20 µM SVD-1a for 7d in a 96-well non-binding half-area plate (Corning, USA) in a FLUOStar platereader (BMG labtech, GE) with 300 rpm continuous orbital shaking in between reads adding one borosilicate bead per well (d = 3 mm, Hilgenberg, GE, n = 7). […] Retentate and flow through samples were analyzed using SDS-PAGE with silver staining. […]

[1] abbreviates: one-phase exponential decay, 37 °C.

On to `CC[C@@H](C)[C@@H](NC(=O)[C@@H](Cc1c[nH]cn1)NC(=O)[C@@H](CCC(=O)O)NC(=O)[C@@H](CCC(N)=O)NC(=O)[C@@H](Cc1c[nH]c2ccccc12)NC(=O)[C@@H](Cc1ccc(O)cc1)NC(=O)[C@H](NC(=O)[C@@H](CCC(=O)O)NC(=O)[C@@H](Cc1c[nH]cn1)NC(=O)[C@H](NC(=O)[C@H]1CCCN1C(=O)[C@@H](CC(C)C)NC(=O)[C@H](N)CCCNC(=N)N)[C@H](C)O)[C@H](C)O)C(=O)N[C@H](Cc1c[nH]c2ccccc12)C(=O)N[C@H](Cc1c[nH]cn1)C(=O)N[C@H](C)C(=O)N[C@H](CCCNC(=N)N)C(=O)N[C@H](CCCNC(=N)N)C(=O)N[C@H](CCCNC(=N)N)C(=O)N[C@H](CCCNC(=N)N)C(=O)N[C@H](CCCNC(=N)N)C(N)=O` [SVD-1a] (H-[dR][dL][dP][dT][dH][dE][dT][dY][dW][dQ][dE][dH][dI][dW][dH][dA][dR][dR][dR][dR][dR]-NH2), for which the “radius of monomeric α-syn formed” value in the assay on small α-syn PFF seeds (37 °C, 72 h) was ~ 1.6 nm. The “span of one-phase exponential decay” value in the assay on small α-syn PFF seeds (PBS pH 7.4, 37 °C, 72 h, particles 1–100 nm, amplitude > 0.2) was 23.38 nm. Moreover, the “radius of small α-syn PFF seeds eliminated” value in the assay with small α-syn PFF seeds (no change (26 nm) without SVD-1a) is on record as ~ 26 nm. Also, in the assay with small α-syn PFF seeds (setting [1]), the “half-life of PFF disassembly” value came out at 5.2 h and the “rate constant of PFF disassembly” value came out at 0.132. For the same compound, the “aggregate band in retentate / shift to flow-through” value in the assay with α-syn monomer is recorded as “a progressive shift of α-syn from the retentate to the flow-through is observed; also recorded: the aggregate band intensity was substantially diminished”.
